In ChEMBL document CHEMBL1139968, “Cytotoxic effects of C-glycosides in HOS and HeLa cell lines” (2007):

Key:
HeLa = assay: Antiproliferative activity against human HeLa cells by SRB assay; type: functional
HOS = assay: Antiproliferative activity against human HOS cells by SRB assay; type: functional

| Compound | GI50 (HeLa) [µM] | GI50 (HOS) [µM] |
| --- | --- | --- |
| c1ccc(COC[C@H]2O[C@@H](Cc3ccccc3)[C@H](OCc3ccccc3)[C@@H](OCc3ccccc3)[C@@H]2OCc2ccccc2)cc1 | > 50 | > 50 |
| CC[C@@H]1O[C@H](COCc2ccccc2)[C@@H](OCc2ccccc2)[C@H](OCc2ccccc2)C1=O | > 50 | 4.3 |
| CC(=O)OC[C@H]1O[C@@H](Cc2ccccc2)[C@H](OC(C)=O)[C@@H](OCc2ccccc2)[C@@H]1OC(C)=O | > 50 | > 50 |
| CCCCCCCCCCCCCCCOC[C@H]1O[C@@H](CCC)[C@H](O)[C@@H](OCCCCCCCCCCCCCCC)[C@@H]1OCCCCCCCCCCCCCCC | > 50 | > 50 |
| CC(=O)O[C@@H]1[C@@H](OCc2ccccc2)[C@H](OCc2ccccc2)[C@@H](COCc2ccccc2)O[C@H]1C | > 50 | 8.8 |
| C=CC[C@@H]1O[C@H](COCc2ccccc2)[C@@H](OCc2ccccc2)[C@H](OCc2ccccc2)[C@H]1OCc1ccccc1 | > 50 | > 50 |
| CCC[C@@H]1O[C@H](COCc2ccc3ccccc3c2)[C@@H](OCc2ccc3ccccc3c2)[C@H](OCc2ccc3ccccc3c2)[C@H]1OC(C)=O | > 50 | > 50 |
| CCC[C@H]1O[C@H](COCc2ccc(F)cc2)[C@@H](OCc2ccc(F)cc2)[C@H](OCc2ccc(F)cc2)[C@H]1O | 5.6 | > 50 |
| CCCCOC[C@H]1O[C@@H](CCC)C(=O)[C@@H](OCCCC)[C@@H]1OCCCC | > 50 | > 50 |
| CCC[C@@H]1O[C@H](COCc2ccc3ccccc3c2)[C@@H](OCc2ccc3ccccc3c2)[C@H](OCc2ccc3ccccc3c2)[C@H]1O | > 50 | > 50 |
| C[C@@H]1O[C@H](COCc2ccccc2)[C@@H](OCc2ccccc2)[C@H](OCc2ccccc2)C1=O | > 50 | > 50 |
| CC(C)C[C@@H]1O[C@H](COCc2ccccc2)[C@@H](OCc2ccccc2)[C@H](OCc2ccccc2)C1=O | > 50 | > 50 |
| CC(=O)O[C@@H]1[C@@H](OCc2ccccc2)[C@H](OC(C)=O)[C@@H](COCc2ccccc2)O[C@H]1Cc1ccccc1 | 5.4 | 6.1 |
| O[C@@H]1[C@@H](OCc2ccccc2)[C@H](OCc2ccccc2)[C@@H](COCc2ccccc2)O[C@H]1c1ccccc1 | > 50 | > 50 |
| O[C@@H]1[C@@H](O)[C@H](Cc2ccccc2)O[C@H](COCc2ccccc2)[C@H]1OCc1ccccc1 | 47.9 | 33.5 |
| C=CC[C@@H]1O[C@H](COCc2ccccc2)[C@@H](OCc2ccccc2)[C@H](OCc2ccccc2)C1=O | > 50 | 7.6 |
| CCC[C@@H]1O[C@H](CO)[C@@H](O)[C@H](O)[C@H]1O | > 50 | > 50 |
| CCCCCCCCCCCCCCCOC[C@H]1O[C@H](CCC)[C@H](O)[C@@H](OCCCCCCCCCCCCCCC)[C@@H]1OCCCCCCCCCCCCCCC | 28.7 | 29.9 |
| CC(=O)O[C@@H]1[C@@H](OCc2ccccc2)[C@H](OCc2ccccc2)[C@@H](COCc2ccccc2)O[C@@H]1CC(C)C | > 50 | > 50 |
| CCCCOC[C@H]1O[C@@H](CCC)[C@H](O)[C@@H](OCCCC)C1OCCCC (some centres undefined) | > 50 | > 50 |
| CCC[C@@H]1O[C@H](COCc2ccc(F)cc2)[C@@H](OCc2ccc(F)cc2)[C@H](OCc2ccc(F)cc2)[C@H]1O | 12.3 | 17.2 |
| O=C1[C@H](Cc2ccccc2)O[C@H](COCc2ccccc2)[C@@H](OCc2ccccc2)[C@@H]1OCc1ccccc1 | > 50 | > 50 |
| CCCCC[C@@H]1O[C@H](COCc2ccccc2)[C@@H](OCc2ccccc2)[C@H](OCc2ccccc2)C1=O | > 50 | > 50 |
| c1ccc(COC[C@H]2OCC[C@@H](OCc3ccccc3)[C@@H]2OCc2ccccc2)cc1 | 33.3 | 22.2 |
| CC(=O)O[C@@H]1[C@@H](OC(C)=O)[C@H](Cc2ccccc2)O[C@H](COCc2ccccc2)[C@H]1OC(C)=O | > 50 | > 50 |

Further lines, with some results ahead:

| GI50 (HeLa) [µM] | Compound | GI50 (HOS) [µM] |
| --- | --- | --- |
| 17.4 | O[C@@H]1[C@@H](OCc2ccccc2)[C@H](OCc2ccccc2)[C@@H](COCc2ccccc2)O[C@H]1Cc1ccccc1 | 29.2 |
| 17.4 | CCC[C@H]1O[C@H](COCc2ccccc2)[C@@H](OCc2ccccc2)[C@H](OCc2ccccc2)[C@H]1O | 23.6 |
| 23.3 | CCC[C@@H]1O[C@H](COCc2ccccc2)[C@@H](OCc2ccccc2)[C@H](OCc2ccccc2)[C@@H]1O | > 50 |
| > 50 | C[C@@H]1O[C@H](COCc2ccccc2)[C@@H](OCc2ccccc2)[C@H](OCc2ccccc2)[C@H]1O | > 50 |
| > 50 | OCCC[C@@H]1O[C@H](COCc2ccccc2)[C@@H](OCc2ccccc2)[C@H](OCc2ccccc2)[C@H]1O | > 50 |
| > 50 | c1ccc(COC[C@H]2O[C@@H]3C[C@@H]3[C@@H](OCc3ccccc3)[C@@H]2OCc2ccccc2)cc1 | > 50 |
| > 50 | O[C@H]1CO[C@H](COCc2ccccc2)[C@@H](OCc2ccccc2)[C@@H]1OCc1ccccc1 | 37.9 |
| 19.8 | CC[C@@H]1O[C@H](COCc2ccccc2)[C@@H](OCc2ccccc2)[C@H](OCc2ccccc2)[C@H]1O | 34.2 |
| > 50 | O[C@@H]1[C@@H](OCc2ccccc2)[C@H](OCc2ccccc2)[C@@H](COCc2ccccc2)O[C@H]1CC1CC1 | > 50 |
| 24.6 | CC(C)C[C@@H]1O[C@H](COCc2ccccc2)[C@@H](OCc2ccccc2)[C@H](OCc2ccccc2)[C@@H]1O | 26.3 |
| 30.2 | OCC[C@@H]1O[C@H](COCc2ccccc2)[C@@H](OCc2ccccc2)[C@H](OCc2ccccc2)[C@H]1O | 39.7 |
| 9.5 | O[C@@H]1[C@@H](OCc2ccccc2)[C@H](OCc2ccccc2)[C@@H](COCc2ccccc2)O[C@H]1CC1CCCCC1 | 4.4 |
| > 50 | C=CC[C@@H]1O[C@H](COCc2ccccc2)[C@@H](OCc2ccccc2)[C@H](OCc2ccccc2)[C@H]1OC(C)=O | 11 |
| 26.2 | C=CC[C@@H]1O[C@H](COCc2ccccc2)[C@@H](OCc2ccccc2)[C@H](OCc2ccccc2)[C@H]1O | 44.1 |
| > 50 | CC(C)C[C@@H]1O[C@H](COCc2ccccc2)[C@@H](OCc2ccccc2)[C@H](OCc2ccccc2)[C@H]1O | 45.2 |
| > 50 | O[C@@H]1[C@@H](OCc2ccccc2)[C@H](OCc2ccccc2)[C@@H](COCc2ccccc2)O[C@@H]1CC1CCCCC1 | 20.7 |
| > 50 | CCC[C@@H]1O[C@H](COCc2ccccc2)[C@@H](OCc2ccccc2)[C@H](OCc2ccccc2)C1=O | > 50 |
| 18.9 | CCC[C@@H]1O[C@H](COCc2ccccc2)[C@@H](OCc2ccccc2)[C@H](OCc2ccccc2)[C@H]1O | 38.6 |
| > 50 | CCCC[C@@H]1O[C@H](COCc2ccccc2)[C@@H](OCc2ccccc2)[C@H](OCc2ccccc2)[C@H]1O | 40.1 |
| > 50 | CC[C@H]1O[C@H](COCc2ccccc2)[C@@H](OCc2ccccc2)[C@H](OCc2ccccc2)[C@H]1O | > 50 |
| > 50 | CC[C@@H]1O[C@H](COCc2ccccc2)[C@@H](OCc2ccccc2)[C@H](OCc2ccccc2)[C@H]1OC(C)=O | > 50 |
| 43.9 | CC(C)C[C@H]1O[C@H](COCc2ccccc2)[C@@H](OCc2ccccc2)[C@H](OCc2ccccc2)[C@H]1O | 44.5 |
| 25.8 | OC[C@@H]1O[C@H](COCc2ccccc2)[C@@H](OCc2ccccc2)[C@H](OCc2ccccc2)[C@H]1O | 27.3 |
| 38 | OC[C@H]1O[C@@H](Cc2ccccc2)[C@H](O)[C@@H](OCc2ccccc2)[C@@H]1OCc1ccccc1 | 31.6 |
| > 50 | CCC[C@H]1O[C@H](COCc2ccccc2)[C@@H](OCc2ccccc2)[C@H](OCc2ccccc2)C1=O | > 50 |
| > 50 | c1ccc(COC[C@H]2O[C@H]3C[C@H]3[C@@H](OCc3ccccc3)[C@@H]2OCc2ccccc2)cc1 | > 50 |
| > 50 | ClC1(Cl)[C@@H]2[C@@H](OCc3ccccc3)[C@H](OCc3ccccc3)[C@@H](COCc3ccccc3)O[C@@H]21 | 1.6 |
